Where “and” joins values, the source holds several entries; their conditions need not be identical. Equal values may be shown once.
Key:
[1] = test system: non-constipation IBS; test: Study 2 (TARGET 2): rifaximin 550 mg TID 14 days vs placebo in non-C IBS, 10-week follow-up; type: in vivo, human
Procedure: The primary efficacy endpoint of the study was the proportion of subjects who achieved adequate relief of IBS symptoms for at least 2 weeks during the first 4 weeks of the 10-week follow-up phase.
Two measures of efficacy were assessed.
Subjects were questioned on the relief of overall IBS symptoms and bloating. […] The analyses defined success as a “yes” response to questions regarding adequate relief. […]
All subpopulations in the study responded to therapy. Baseline severity was determined during screening for Abdominal Pain/Discomfort and Bloating, and the number, type (normal, hard, loose) and urgency of bowel movements. Duration of effect was assessed in a ten week follow-up period. […]
In TARGET 1 and 2, the primary endpoint was the proportion of patients who achieved adequate relief of IBS symptoms for at least 2 of 4 weeks during the month following 14 days of treatment. Adequate relief was defined as a response of “yes” to the following weekly Subject Global Assessment (SGA) question: “In regards to your IBS symptoms, compared to the way you felt before you started study medication, have you, in the past 7 days, had adequate relief of your IBS symptoms? [Yes/No]”
The key secondary endpoint was the proportion of patients who achieved adequate relief of IBS-related bloating for at least 2 of 4 weeks during the month following 2 weeks of treatment. Adequate relief of IBS-related bloating was defined as a response of “yes” to the following weekly (every 7 days) SGA question: “In regards to your IBS symptom of bloating, compared to the way you felt before you started study medication, have you, in the past 7 days, had adequate relief of your IBS symptom of bloating? […]

[2] = test system: non-constipation IBS; test: as above; type: in vivo, human; conditions: at least 2 weeks during PEP
[3] = 550 mg TID, Population: ITT (N = 315)
[4] = 550 mg TID, Population: PP (N = 311)
[5] = 550 mg TID, Weeks 3-6, Population: PP (N = 311)
[6] = 550 mg TID, at least 2 of Weeks 3-6, N = 315, LOCF
[7] = Age Group: <65 (N = 281), 550 mg TID, Weeks 3-6
[8] = Age Group: >=65, 550 mg TID, Weeks 3-6
[9] = Gender: Female (N = 226), 550 mg TID, Weeks 3-6
[10] = Gender: Male (N = 85), 550 mg TID, Weeks 3-6
[11] = IBS Subtype: Alternating-predominant, 550 mg TID, Weeks 3-6
[12] = IBS Subtype: Diarrhoea-predominant, 550 mg TID, Weeks 3-6
[13] = Race: Non-White (N = 31), 550 mg TID, Weeks 3-6
[14] = Race: White (N = 280), 550 mg TID, Weeks 3-6
[15] = Study 2, at least 2 weeks during PEP
[16] = TARGET 2, month following two weeks of treatment, 550 mg TID, N = 315

SMILES: CO[C@H]1/C=C/O[C@@]2(C)Oc3c(C)c(O)c4c(O)c(c5c(nc6cc(C)ccn65)c4c3C2=O)NC(=O)/C(C)=C\C=C\[C@H](C)[C@H](O)[C@@H](C)[C@@H](O)[C@@H](C)[C@H](OC(C)=O)[C@@H]1C [Rifaximin, (2S,16Z,18E,20S,21S,22R,23R,24R,25S,26S,27S,28E)-5,6,21,23,25 Pentahydroxy-27-methoxy-2,4,11,16,20,22,24,26-octamethyl-2,7-(epoxypentadeca-(1,11,13)trienimino) benzofuro (4,5-e) pyrido(1,2-a) benzimidazole-1,15(2H)-dione,25-acetate]
- Subjects with skin or subcutaneous tissue disorders ([1]; 550 mg TID): 1.3%
- Adequate relief of IBS symptom of bloating based on daily measures, Failure [1, 3]: 182 (57.8%) N (%)
- Adequate relief of IBS symptom of bloating based on daily measures, Success [1, 3]: 133 (42.2%) N (%)
- Adequate relief of IBS symptoms based on daily measures, Failure [1, 3]: 200 (63.5%) N (%)
- Adequate relief of IBS symptoms based on daily measures, Success [1, 3]: 115 (36.5%) N (%)
- Adequate relief of IBS symptom of bloating based on daily measures, Failure [1, 4]: 180 (57.9%) N (%)
- Adequate relief of IBS symptom of bloating based on daily measures, Success [1, 4]: 131 (42.1%) N (%)
- Adequate relief of IBS symptoms based on daily measures, Failure [1, 4]: 196 (63.0%) N (%)
- Adequate relief of IBS symptoms based on daily measures, Success [1, 4]: 115 (37.0%) N (%)
- Adequate relief of IBS symptom of bloating (weekly SGA), Failure [1, 5]: 187 (60.1%) N (%)
- Adequate relief of IBS symptom of bloating (weekly SGA), Success [1, 5]: 124 (39.9%) N (%)
- Adequate relief of IBS symptoms (weekly SGA), Failure [1, 5]: 187 (60.1%) N (%)
- Adequate relief of IBS symptoms (weekly SGA), Success [1, 5]: 124 (39.9%) N (%)
- Adequate relief of IBS symptom of bloating (weekly SGA), Failure [1, 6]: 190 (60.3%) n (%)
- Adequate relief of IBS symptom of bloating (weekly SGA), Success [1, 6]: 125 (39.7%) n (%)
- Adequate relief of IBS symptoms (weekly SGA), Failure [1, 6]: 190 (60.3%) n (%)
- Adequate relief of IBS symptoms (weekly SGA), Success [1, 6]: 125 (39.7%) n (%)
- Subjects discontinued study early for Adverse Event/Serious Adverse Event ([1]; 550 mg TID, randomized subjects (316)): 0 n (%)
- Adequate relief of IBS symptom of bloating (weekly SGA), Failure [1, 7]: 171 (60.9%) N (%)
- Adequate relief of IBS symptom of bloating (weekly SGA), Success [1, 7]: 110 (39.1%) N (%)
- Adequate relief of IBS symptoms (weekly SGA), Failure [1, 7]: 171 (60.9%) N (%)
- Adequate relief of IBS symptoms (weekly SGA), Success [1, 7]: 110 (39.1%) N (%)
- Adequate relief of IBS symptom of bloating (weekly SGA), Failure [1, 8]: 16 (53.3%) N (%)
- Adequate relief of IBS symptom of bloating (weekly SGA), Success [1, 8]: 14 (46.7%) N (%)
- Adequate relief of IBS symptoms (weekly SGA), Failure [1, 8]: 16 (53.3%) N (%)
- Adequate relief of IBS symptoms (weekly SGA), Success [1, 8]: 14 (46.7%) N (%)
- Adequate relief of IBS symptom of bloating (weekly SGA), Failure [1, 9]: 128 (56.6%) N (%)
- Adequate relief of IBS symptom of bloating (weekly SGA), Success [1, 9]: 98 (43.4%) N (%)
- Adequate relief of IBS symptoms (weekly SGA), Failure [1, 9]: 130 (57.5%) N (%)
- Adequate relief of IBS symptoms (weekly SGA), Success [1, 9]: 96 (42.5%) N (%)
- Adequate relief of IBS symptom of bloating (weekly SGA), Failure [1, 10]: 59 (69.4%) N (%)
- Adequate relief of IBS symptom of bloating (weekly SGA), Success [1, 10]: 26 (30.6%) N (%)
- Adequate relief of IBS symptoms (weekly SGA), Failure [1, 10]: 57 (67.1%) N (%)
- Adequate relief of IBS symptoms (weekly SGA), Success [1, 10]: 28 (32.9%) N (%)
- Adequate relief of IBS symptom of bloating (weekly SGA), Failure [1, 11]: 19 (55.9%) N (%)
- Adequate relief of IBS symptom of bloating (weekly SGA), Success [1, 11]: 15 (44.1%) N (%)
- Adequate relief of IBS symptoms (weekly SGA), Failure [1, 11]: 21 (61.8%) N (%)
- Adequate relief of IBS symptoms (weekly SGA), Success [1, 11]: 13 (38.2%) N (%)
- Adequate relief of IBS symptom of bloating (weekly SGA), Failure [1, 12]: 168 (60.6%) N (%)
- Adequate relief of IBS symptom of bloating (weekly SGA), Success [1, 12]: 109 (39.4%) N (%)
- Adequate relief of IBS symptoms (weekly SGA), Failure [1, 12]: 166 (59.9%) N (%)
- Adequate relief of IBS symptoms (weekly SGA), Success [1, 12]: 111 (40.1%) N (%)
- Adequate relief of IBS symptom of bloating (weekly SGA), Failure [1, 13]: 17 (54.8%) N(%)
- Adequate relief of IBS symptom of bloating (weekly SGA), Success [1, 13]: 14 (45.2%) N(%)
- Adequate relief of IBS symptoms (weekly SGA), Failure [1, 13]: 16 (51.6%) N(%)
- Adequate relief of IBS symptoms (weekly SGA), Success [1, 13]: 15 (48.4%) N(%)
- Adequate relief of IBS symptom of bloating (weekly SGA), Failure [1, 14]: 170 (60.7%) N (%)
- Adequate relief of IBS symptom of bloating (weekly SGA), Success [1, 14]: 110 (39.3%) N (%)
- Adequate relief of IBS symptoms (weekly SGA), Failure [1, 14]: 171 (61.1%) N (%)
- Adequate relief of IBS symptoms (weekly SGA), Success [1, 14]: 109 (38.9%) N (%)
- IBS symptom of bloating: adequate relief at least 2 out of 4 weeks during weeks 3 through 6 (weekly question) ([1]; Study 2 / TARGET 2): 41%
- Global IBS symptoms: adequate relief at least 2 out of 4 weeks during weeks 3 through 6 (weekly question) ([1]; Study 2 / TARGET 2, 550 mg TID 14 d): 41% and 32% vs 41%
- Responders: abdominal pain reduction of 1 point in weekly mean [1, 15]: 52%
- Responders: abdominal pain reduction of 2 point in median [1, 15]: 41%
- Responders: abdominal pain reduction of 3 point in mean [1, 15]: 6% vs 7%
- Responders: abdominal pain reduction of 3 point in median [1, 15]: 21%
- Responders: daily abdominal pain < 2 for at least 50% of days in a week [1, 15]: 39%
- Responders: overall reduction of mean weekly abdominal pain by >= 25% [1, 15]: 58%
- Responders: overall reduction of mean weekly abdominal pain by >= 50% [1, 15]: 35%
- Responders: overall reduction of mean weekly abdominal pain by >= 75% [1, 15]: 14%
- Responders: overall reduction of median weekly abdominal pain by >= 25% [1, 15]: 62%
- Responders: overall reduction of median weekly abdominal pain by >= 50% [1, 15]: 44%
- Abdominal Pain Responders: % [1, 16]: 52%
- Abdominal Pain Responders: n [1, 16]: 165
- Abdominal Pain and Stool Consistency Responders: % [1, 16]: 47%
- Abdominal Pain and Stool Consistency Responders: n [1, 16]: 147
- Adequate Relief of IBS Symptoms: % [1, 16]: 41%
- Adequate Relief of IBS Symptoms: n [1, 16]: 128
- Adequate Relief of IBS-Related Bloating: % [1, 16]: 41%
- Adequate Relief of IBS-Related Bloating: n [1, 16]: 129
- Stool Consistency Responders: % [1, 16]: 74%
- Stool Consistency Responders: n [1, 16]: 233
- Monthly responders for abdominal pain (≥30% decrease) and stool consistency (score <4) ([1]; TARGET 2, ≥2 weeks in month following 2 weeks of treatment): 47%
- % with decrease in stool frequency (SF) ([1]; Week 1, 550 mg TID): 14.4%
- % with decrease in stool frequency (SF) ([1]; Week 2, 550 mg TID): 20.6%
- % with decrease in stool frequency (SF) ([1]; Week 3, 550 mg TID): 22.2%
- % with decrease in stool frequency (SF) ([1]; Week 4, 550 mg TID): 21.6%
- % with decrease in stool frequency (SF) ([1]; Week 5, 550 mg TID): 25.7%
- % with decrease in stool frequency (SF) ([1]; Week 6, 550 mg TID): 22.9%
- % with decrease in stool frequency (SF) ([1]; Week 7, 550 mg TID): 23.8%
- % with decrease in stool frequency (SF) ([1]; Week 8, 550 mg TID): 24.4%
- % with decrease in stool frequency (SF) ([1]; Week 9, 550 mg TID): 25.4%
- % with decrease in stool frequency (SF) ([1]; Week 10, 550 mg TID): 26.7%
- % with decrease in stool frequency (SF) ([1]; Week 11, 550 mg TID): 25.4%
- % with decrease in stool frequency (SF) ([1]; Week 12, 550 mg TID): 27.0%
- Responders: abdominal pain reduction of 1 point in weekly median [2]: 62%
- Responders: abdominal pain reduction of 2 point in mean [2]: 25%
- Responders: overall reduction of median weekly abdominal pain by >= 75% [2]: 20%
